Reference: US20100113584A1, “NOVEL USE OF (-)-EPIGALLOCATECHIN GALLATE” (priority 2007, published 2010)

Columns and labels:
[1] = test system: skeletal muscle fibers of medial gastrocnemius muscle; test: Fiber type quantification in medial gastrocnemius muscle (immune-histochemistry, cytochrome oxidase staining); assay type: in vivo, mice; settings: 2 months
Excerpt: (§1) Male C57BL/6J mice (5 weeks old) were purchased from Charles River (Sulzfeld, Germany). All mice initially received a high-fat diet (Kliba#2154, Provimi Kliba AG, Kaiseraugst, Switzerland) for 3 months. Thereafter, mice were randomly assigned to 5 groups. • Group 1: Low-fat diet, restricted to cage normal activity (Low fat sedentary, n=11) • Group 2: High-fat diet, restricted to cage normal activity (High fat sedentary, n=11) • Group 3: High-fat diet containing 0.5% w/w EGCG, restricted to cage normal activity (High fat+EGCG sedentary, n=10) • Group 4: High-fat diet, free access to running wheel (High fat exercise, n=10) • Group 5: High-fat diet containing 0.5% w/w EGCG, free access to running wheel (High fat+EGCG exercise, n=10) The duration of the treatment was 2 months. During this period all mice received food and water ad libitum. Mice in groups 4 and 5 had unlimited access to running wheels (Technical & Scientific Equipment GmbH, Bad Homburg, Germany). Daily voluntary running wheel activity was monitored. At the end of the treatment period, maximal running performance on a rodent treadmill (Technical & Scientific Equipment GmbH, Bad Homburg, Germany) was determined. The Gastrocnemius muscles were excised, frozen in liquid nitrogen and stored at −80° C. for later quantification of the fiber type. In the medial gastrocnemius, skeletal muscle fibers were quantified as Type I, Type IIA, Type D/X, Type IIB by immune-histochemistry utilizing fiber specific antibodies and by histochemistry using a cytochrome oxidase staining.

[2] = test system: C57BL/6J mice; test: Daily voluntary running wheel activity of mice on high-fat diet; assay type: in vivo; settings: male C57BL/6J mice, high-fat diet containing 0.5% w/w EGCG, free access to running wheel, 2 months; P<0.004 vs high-fat diet alone
Excerpt: as §1, with “During this period all mice received food and water ad libitum. Mice in groups 4 and 5 had unlimited access to running wheels (Technical & Scientific Equipment GmbH, Bad Homburg, Germany).” left out

[3] = High fat + EGCG (0.5% w/w) exercise (running wheel)
[4] = High fat + EGCG (0.5% w/w) sedentary

(−)-epigallocatechin gallate [EGCG]
Percentage of Type I fibers in medial gastrocnemius muscle [1, 3]: 12.8%
Percentage of Type IIa fibers in medial gastrocnemius muscle [1, 3]: 54.2%
Percentage of Type IIb fibers in medial gastrocnemius muscle [1, 3]: 27.8%
Percentage of Type IId/x fibers in medial gastrocnemius muscle [1, 3]: 5.1%
Percentage of Type I fibers in medial gastrocnemius muscle [1, 4]: 12.5%
Percentage of Type IIa fibers in medial gastrocnemius muscle [1, 4]: 53.5%
Percentage of Type IIb fibers in medial gastrocnemius muscle [1, 4]: 28.8%
Percentage of Type IId/x fibers in medial gastrocnemius muscle [1, 4]: 5.2%
voluntary running wheel activity, average distance run per day [2]: 3140.3±43.3 m per day
